Source: patent publication US10183950B2, “Thienopyrimidine inhibitors of atypical protein kinase C” (Cancer Research Technology Limited, priority 2011, dated 2019)
Like-named read-outs stand apart in the source and are kept apart here.

Target: T1, full-length human PKCι (Homo sapiens, UniProt P41743)
T1 construct: Recombinant, full-length human PKCι expressed in Sf21 insect cells is also commercially available; purchased; host or cells: Sf21 insect cells
T1 sequence (P41743 1-596): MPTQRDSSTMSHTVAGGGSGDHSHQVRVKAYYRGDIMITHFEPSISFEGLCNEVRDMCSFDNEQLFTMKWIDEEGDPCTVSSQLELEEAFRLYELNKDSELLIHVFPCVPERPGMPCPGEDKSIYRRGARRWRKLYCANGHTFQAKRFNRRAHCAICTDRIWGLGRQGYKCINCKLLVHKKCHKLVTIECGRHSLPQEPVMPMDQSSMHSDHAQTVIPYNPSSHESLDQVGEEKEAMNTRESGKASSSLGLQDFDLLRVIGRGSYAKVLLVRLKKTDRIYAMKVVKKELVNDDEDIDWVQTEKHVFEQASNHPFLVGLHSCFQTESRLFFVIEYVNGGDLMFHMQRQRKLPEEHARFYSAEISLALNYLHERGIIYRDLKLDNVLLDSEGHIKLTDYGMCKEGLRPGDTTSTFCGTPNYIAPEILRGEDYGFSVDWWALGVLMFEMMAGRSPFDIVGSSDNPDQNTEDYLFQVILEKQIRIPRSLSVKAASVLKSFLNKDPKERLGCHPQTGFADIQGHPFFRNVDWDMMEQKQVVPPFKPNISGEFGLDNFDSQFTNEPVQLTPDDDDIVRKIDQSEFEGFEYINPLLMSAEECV
Experiment: PKCι IC50 IMAP fluorescence polarisation assay, full-length enzyme
Format: biochemical
Details: full length PKCi at 15 μM ATP

[1] = read-out: IC50 in IMAP assay against full length PKCi
[2] = read-out: IC50 in IMAP assay against full length PKCi (Activity)

| SMILES | IC50 [1] | IC50 [2] |
| --- | --- | --- |
| COc1cccc(-c2c(C(C)(C)C)sc3c(NC[C@@H](N)Cc4ccccc4)nc(-c4ccncc4)nc23)c1 [compound 441, (S)-N*1*-[6-tert-Butyl-7-(3-methoxy-phenyl)-2-pyridin-4-yl-thieno[3,2-d]pyrimidin-4-yl]-3-phenyl-propane-1,2-diamine] | 10 to 40 µM |  |
| Cc1ccccc1C[C@H](N)CNc1nc(-c2ccncc2)nc2sc3c(c12)CCCC3 [compound 53, (S)-N*1*-(2-Pyridin-4-yl-5,6,7,8-tetrahydro-benzo[4,5]thieno[2,3-d]pyrimidin-4-yl)-3-o-tolyl-propane-1,2-diamine] |  | 0.1 to 1 µM |
| N[C@H](CNc1nc(-c2ccncc2)nc2c(-c3cc[nH]c3)csc12)Cc1ccccc1 [compound 398, (S)-3-Phenyl-N*1*-[2-pyridin-4-yl-7-(1H-pyrrol-3-yl)-thieno[3,2-d]pyrimidin-4-yl]-propane-1,2-diamine] | 0.1 to 1 µM |  |
| O=S(=O)(Nc1cc(-c2nc(N[C@@H]3CCNC3)c3sccc3n2)ccn1)C1CC1 [compound 622, Cyclopropanesulfonic acid {4-[4-((R)-pyrrolidin-3-ylamino)-thieno[3,2-d]pyrimidin-2-yl]-pyridin-2-yl}-amide] | 10 to 40 µM |  |
| N[C@H](CNc1nc(-c2ccncc2O)nc2sc3c(c12)CCCC3)Cc1ccccc1 [compound 103, 4-[4-((S)-2-Amino-3-phenyl-propylamino)-5,6,7,8-tetrahydro-benzo[4,5]thieno[2,3-d]pyrimidin-2-yl]-pyridin-3-ol] |  | 1 to 10 µM |
| COc1cnccc1-c1c(C)sc2c(NC[C@@H](N)Cc3ccccc3)nc(-c3ccncc3)nc12 [compound 456, (S)-N*1*-[7-(3-Methoxy-pyridin-4-yl)-6-methyl-2-pyridin-4-yl-thieno[3,2-d]pyrimidin-4-yl]-3-phenyl-propane-1,2-diamine] | 10 to 40 µM |  |
| NCCNc1nc(-c2ccncc2)nc2sc3c(c12)CCOC3 [compound 45, N*1*-(2-Pyridin-4-yl-5,8-dihydro-6H-pyrano[4′3′:4,5]thieno[2,3-d]pyrimidin-4-yl)-ethane-1,2-diamine] |  | 10 to 40 µM |
| N[C@H](CNc1nc(-c2ccncc2Cl)nc2ccsc12)Cc1ccccc1 [compound 323, (S)-N*1*-[2-(3-Chloro-pyridin-4-yl)-thieno[3,2-d]pyrimidin-4-yl]-3-phenyl-propane-1,2-diamine] | 1 to 10 µM |  |
| COc1ccc(C)cc1-c1c(C)sc2c(NC[C@@H](N)Cc3ccccc3)nc(-c3ccncc3)nc12 [compound 450, (S)-N*1*-[7-(2-Methoxy-5-methyl-phenyl)-6-methyl-2-pyridin-4-yl-thieno[3,2-d]pyrimidin-4-yl]-3-phenyl-propane-1,2-diamine] | 10 to 40 µM |  |
| c1cc(-c2nc(N[C@@H]3CCNC3)c3sccc3n2)cc(NC2CCOCC2)n1 [compound 625, (R)-Pyrrolidin-3-yl-{2-[2-(tetrahydro-pyran-4-ylamino)-pyridin-4-yl]-thieno[3,2-d]pyrimidin-4-yl}-amine] | 10 to 40 µM |  |
| CC(C)(C)NC(=O)Nc1cc(-c2nc(N[C@@H]3CCNC3)c3sccc3n2)ccn1 [compound 582, 1-tert-Butyl-3-{4-[4-((R)-pyrrolidin-3-ylamino)-thieno[3,2-d]pyrimidin-2-yl]-pyridin-2-yl}-urea] | 1 to 10 µM |  |
| N[C@H](CNc1nc(-c2ccncc2)nc2sc3c(c12)CCCC3)Cc1ccncc1 [compound 56, (S)-3-Pyridin-4-yl-N*1*-(2-pyridin-4-yl-5,6,7,8-tetrahydro-benzo[4,5]thieno[2,3-d]pyrimidin-4-yl)-propane-1,2-diamine] |  | 1 to 10 µM |
| O=C(Nc1csc2c(N[C@@H]3CCNC3)nc(-c3ccncc3)nc12)C1CCCCC1 [compound 473, Cyclohexanecarboxylic acid [2-pyridin-4-yl-4-((R)-pyrrolidin-3-ylamino)-thieno[3,2-d]pyrimidin-7-yl]-amide] | 10 to 40 µM |  |
| CC(C)CN1CCc2c(sc3nc(-c4ccncc4)nc(NCCN)c23)C1 [compound 114, N*1*-(7-Isobutyl-2-pyridin-4-yl-5,6,7,8-tetrahydro-pyrido[4′,3′:4,5]thieno[2,3-d]pyrimidin-4-yl)-ethane-1,2-diamine] |  | 10 to 40 µM |
| CNCCNc1nc(-c2ccncc2)nc2c(Br)csc12 [compound 345, N-(7-Bromo-2-pyridin-4-yl-thieno[3,2-d]pyrimidin-4-yl)-N′-methyl-ethane-1,2-diamine] | 1 to 10 µM |  |
| c1csc(-c2ccc(Nc3cc(-c4nc(N[C@@H]5CCNC5)c5sccc5n4)ccn3)cc2)c1 [compound 616, (R)-Pyrrolidin-3-yl-{2-[2-(4-thiophen-2-yl-phenylamino)-pyridin-4-yl]-thieno[3,2-d]pyrimidin-4-yl}-amine] | 0.1 to 1 µM |  |

| SMILES | IC50 [1] | IC50 [2] |
| --- | --- | --- |
| O[C@H]1CNC[C@@H]1Nc1nc(-c2ccncc2)nc2ccsc12 [compound 319, (3S,4S)-4-(2-Pyridin-4-yl-thieno[3,2-d]pyrimidin-4-ylamino)-pyrrolidin-3-ol] | 1 to 10 µM |  |
| CN1CC[C@@H](Nc2nc(-c3ccnc(NC(=O)c4cccs4)c3)nc3ccsc23)C1 [compound 628, Thiophene-2-carboxylic acid {4-[4-((R)-1-methyl-pyrrolidin-3-ylamino)-thieno[3,2-d]pyrimidin-2-yl]-pyridin-2-yl}-amide] | 1 to 10 µM |  |
| N[C@@H]1CCN(c2nc(-c3ccncc3)nc3ccsc23)C1 [compound 318, (R)-1-(2-Pyridin-4-yl-thieno[3,2-d]pyrimidin-4-yl)-pyrrolidin-3-ylamine] | 10 to 40 µM |  |
| N[C@H](CNc1nc(-c2ccncc2)nc2c(NC(=O)C3CCCCC3)csc12)Cc1ccccc1 [compound 474, Cyclohexanecarboxylic acid [4-((S)-2-amino-3-phenyl-propylamino)-2-pyridin-4-yl-thieno[3,2-d]pyrimidin-7-yl]-amide] | 10 to 40 µM |  |
| Brc1csc2c(N[C@H]3CCNC3)nc(-c3ccncc3)nc12 [compound 344, (7-Bromo-2-pyridin-4-yl-thieno[3,2-d]pyrimidin-4-yl)-(S)-pyrrolidin-3-yl-amine] | 1 to 10 µM |  |
| NCCNc1nc(-c2ccncc2)nc2sc3c(c12)CCSC3 [compound 44, N*1*-(2-Pyridin-4-yl-5,8-dihydro-6H-thio-pyrano[4′,3′:4,5]thieno[2,3-d]pyrimidin-4-yl)-ethane-1,2-diamine] |  | 1 to 10 µM |
| CCC(O)(C#Cc1csc2c(NC[C@@H](N)Cc3ccccc3)nc(-c3ccncc3)nc12)CC [compound 525, 1-[4-(2-Amino-3-phenyl-propylamino)-2-pyridin-4-yl-thieno[3,2-d]pyrimidin-7-yl]-3-ethyl-pent-1-yn-3-ol] | 1 to 10 µM |  |
| c1ccc(Nc2cc(-c3nc(N[C@@H]4CCNC4)c4sccc4n3)ccn2)cc1 [compound 573, [2-(2-Phenylamino-pyridin-4-yl)-thieno[3,2-d]pyrimidin-4-yl]-(R)-pyrrolidin-3-yl-amine] | 1 to 10 µM |  |
| CC(O)C#Cc1csc2c(NC[C@@H](N)Cc3ccccc3)nc(-c3ccncc3)nc12 (stereo partly drawn) [compound 513, 4-[4-((S)-2-Amino-3-phenyl-propylamino)-2-pyridin-4-yl-thieno[3,2-d]pyrimidin-7-yl]-but-3-yn-2-ol] | < 0.1 µM |  |
| N[C@H](CNc1nc(-c2ccncc2)nc2sc3c(c12)CCCC3)Cc1ccccn1 [compound 58, (S)-3-Pyridin-2-yl-N*1*-(2-pyridin-4-yl-5,6,7,8-tetrahydro-benzo[4,5]thieno[2,3-d]pyrimidin-4-yl)-propane-1,2-diamine] |  | 1 to 10 µM |
| CC(C)(C)c1sc2c(NC[C@@H](N)Cc3ccccc3)nc(-c3ccncc3)nc2c1-c1cn[nH]c1 [compound 437, (S)-N*1*-[6-tert-Butyl-7-(1H-pyrazol-4-yl)-2-pyridin-4-yl-thieno[3,2-d]pyrimidin-4-yl]-3-phenyl-propane-1,2-diamine] | 1 to 10 µM |  |
| N[C@H](CNc1nc(-c2ccncc2F)nc2c(-c3cc[nH]n3)csc12)Cc1ccccc1 [compound 416, (S)-N*1*-[2-(3-Fluoro-pyridin-4-yl)-7-(1H-pyrazol-3-yl)-thieno[3,2-d]pyrimidin-4-yl]-3-phenyl-propane-1,2-diamine] | < 0.1 µM |  |
| NCCNc1nc(-c2ccncc2)nc2c(-c3ccc(Br)cc3)csc12 [compound 310, N*1*-[7-(4-Bromo-phenyl)-2-pyridin-4-yl-thieno[3,2-d]pyrimidin-4-yl]-ethane-1,2-diamine] | 1 to 10 µM |  |
| N[C@H](CNc1nc(-c2ccncc2)nc2sc3c(c12)CCCC3)Cc1ccc(F)cc1 [compound 50, (S)-3-(4-Fluoro-phenyl)-N*1*-(2-pyridin-4-yl-5,6,7,8-tetrahydro-benzo[4,5]thieno[2,3-d]pyrimidin-4-yl)-propane-1,2-diamine] |  | 1 to 10 µM |
| N#Cc1ccc(Nc2cc(-c3nc(N[C@@H]4CCNC4)c4sccc4n3)ccn2)cc1 [compound 607, 4-{4-[4-((R)-Pyrrolidin-3-ylamino)-thieno[3,2-d]pyrimidin-2-yl]-pyridin-2-ylamino}-benzonitrile] | 1 to 10 µM |  |
| CCc1cc(-c2csc3c(NC[C@@H](N)Cc4ccccc4)nc(-c4ccncc4)nc23)no1 [compound 570, (S)-N*1*-[7-(5-Ethyl-isoxazol-3-yl)-2-pyridin-4-yl-thieno[3,2-d]pyrimidin-4-yl]-3-phenyl-propane-1,2-diamine] | 1 to 10 µM |  |
